{
  "source": "patent US20200078408A1",
  "about": "“GENE THERAPY” (Ospedale San Raffaele S.r.l., priority 2017, published 2020)",
  "key": {"B-ALL": {"system": "B-ALL", "assay": "B-ALL challenge of mice reconstituted with Tie2-vector transduced HSPCs (Example 7)", "type": "in vivo, mouse", "settings": "FIG. 31A", "text": "We employed a transplantable model of B-acute lymphoblastic leukaemia (B-ALL) closely mimicking human Philadelphia-like B-ALL (Nucera, S. et al. (2016) Cancer Cell 29: 905-921), which readily induces a protumoral, immunosuppressive microenvironment characterised, for example, by the appearance of myeloid-derived suppressor cells, downregulation of MHC class II genes and upregulation of IL10 and PD1.\nEight weeks post transplant, upon reconstitution of the peripheral blood, animals received the B-ALL that is then followed by frequent blood collection. […]\nWe then combined the contemporaneous delivery of several immunostimulatory cytokines into the leukaemia microenvironment using the Tie2 vector backbone equipped with different transgene cargo. […] Vector copy number of the single vectors measured by specific quantitative PCR assays was rather low ranging from 0.1 to 0.3 in the reconstituted mice. […]\nFurthermore, we evaluated the potential synergy of our gene therapy-based delivery of IFNy with other immunotherapeutic strategies including checkpoint inhibitors anti-CTLA-4 and anti-LAG-3 and the inhibitor of the IDO enzyme, 1-Methyl-Tryptophan (1-MT). […] Vector copy number of the single vectors measured by specific quantitative PCR assays was 0,72 for the Tig126/130a and 0,84 for the controls in the reconstituted mice. […]"}, "[1]": {"system": "macrophages, myeloid-derived suppressor cells, CD8+ T cells", "assay": "tumour microenvironment readouts at sacrifice in the B-ALL model (Example 7)", "type": "in vivo, mouse", "settings": "combined with gene therapy-based delivery of IFNγ (Tig126/130a)"}},
  "data": [
    {"compound": "Cn1cc(CC(N)C(=O)O)c2ccccc21", "note": "(stereo not shown) [1-MT, 1-Methyltryptophan]", "values": [
      {"measurement": "disease progression", "setting": "B-ALL; combined with gene therapy-based delivery of IFNγ (Tig126/130a)", "value": "reduction of the disease progression"},
      {"measurement": "B-ALL progression", "setting": "B-ALL; monotherapy", "value": "no beneficial effect"},
      {"measurement": "MHC class II expression on splenic and bone marrow macrophages", "setting": "[1]; FIG. 31", "value": "significant increase"},
      {"measurement": "cytotoxic CD8+ T cells in the spleen", "setting": "[1]; FIG. 31D", "value": "increase"}
    ]}
  ]
}
